Data set [1] in a line: Cytotoxicity against human C8166 cells assessed as inhibition of cell growth by MTT assay. In kind it is toxicity, cell-based.
For data set [2], the system named is Human immunodeficiency virus 1. Briefly: Antiviral activity against HIV-1 3B harboring reverse transcriptase infected in human MT4 cells assessed as protection against virus-induced cytopathic effect incubated for 5 days by MTT assay. In kind it is functional, organism-based. The settings on record: Human immunodeficiency virus 1, 3B, MT4, 120 h. On the technique in general: Protection from cytopathic effect is a common read-out in antiviral testing.

The test system of data set [3] is Human immunodeficiency virus 1. Briefly: Antiviral activity against HIV-1 3B harboring reverse transcriptase infected in human C8166 cells assessed as protection against virus-induced cytopathic effect incubated for 5 days by MTT assay. In kind it is functional, organism-based. Conditions: Human immunodeficiency virus 1, 3B, C8166, 120 h.
The test system of data set [4] is Human immunodeficiency virus 1. Briefly: Antiviral activity against HIV-1 3B infected in human MT4 cells assessed as inhibition of viral replication incubated for 5 days by MTT assay. In kind it is functional, organism-based. Conditions: Human immunodeficiency virus 1, 3B, MT4, 120 h. On the technique in general: Tetrazolium dyes change colour on reduction, which living cells bring about.

Data set [5] is described as follows: Cytotoxicity against human C8166 cells assessed as inhibition of cell growth incubated for 48 hrs by MTT assay. In kind it is toxicity, cell-based.
In data set [6] the target is Human immunodeficiency virus type 1 reverse transcriptase (Human immunodeficiency virus 1, UniProt Q72547). Briefly: Inhibition of HIV1 reverse transcriptase.
Data set [7] concerns Human immunodeficiency virus 1. Briefly: Anti-HIV activity against HIV-1 IIIB infected in human C8166 cells assessed as inhibition of virus-induced cytopathic effect by MTT assay. It counts as functional, organism-based. Conditions: Human immunodeficiency virus 1, IIIB.
Data set [8] relates to Influenza A virus. Description: Antiviral activity against influenza A virus A/Hong Kong/1/68 (HK1, H3N2) infected in dog MDCK cells assessed as cytopathic effect. In kind it is functional, organism-based.
Data set [9] deals with Influenza A virus. Description: Antiviral activity against influenza A virus H5N1 infected in dog MDCK cells assessed as viral growth inhibition. It counts as functional, organism-based.
In data set [10] the test system is Influenza A virus. Briefly: Antiviral activity against influenza A virus H1N1(A/PR/8/34) infected in MDCK cells assessed as inhibition of cytopathic effect incubated for 48 hrs by MTT assay. It counts as functional, organism-based.
Data set [11] can be described thus: Inhibition of Influenza A virus A/California/04/2009 (H1N1) N-terminal his tagged domain of PA endonuclease expressed in Escherichia coli BL21 (DE3) cells.
Data set [12] is described as follows: Cytotoxicity against MDCK cells assessed as inhibition of cell growth incubated for 48 hrs by MTT assay. Conditions: dog. It counts as toxicity, cell-based, Canis lupus familiaris.
The subject of a further data set is Human alphaherpesvirus 1. Description: Antiviral activity against HSV-1 assessed as inhibition of viral growth. It counts as functional, organism-based.

pEC50, pIC50: −log10 of the molar value. ≈ marks a conversion by molar mass, not a printed value. Where only a bound is given, the exact number is not on record here.

As a reminder, the CC50 is the concentration that lowers cell viability or growth by half. Broadly, the pEC50 is the negative decadic logarithm of the EC50, by convention in mol/L. For `C=CC(C)(C)c1cc2cc(CC(=O)C(C)C)c(OC)cc2oc1=O`, the CC50 in data set [1] is above 200 µM. Moreover, in data set [2], the pEC50 is 6.92.

For the molecule `COc1cc2oc(CO)cc(=O)c2c(O)c1CCC(C)(C)O`, the CC50 in data set [1] is above 200 µM. Further, the pEC50 in data set [3] is 7.05.

For the molecule `C=CC(C)(C)c1cc2cc(C[C@@H](O)C(C)(C)O)c(O)cc2oc1=O`, the CC50 in [1] is above 200 µM. For the same molecule, in [3], the pEC50 is 6.17.

As for `C=CC(C)(C)c1cc2cc(C[C@@H](OCC)C(C)(C)O)c(OC)cc2oc1=O`, the CC50 in [1] was above 200 µM. The negative-log EC50 (pEC50) in data set [2] was 6.38.

In the case of `CC(C)=CCc1c(O)cc2oc(CO)cc(=O)c2c1O`, the CC50 in data set [1] is above 200 µM. Moreover, the pEC50 in [3] was 6.17.

As for `COc1cc2oc(CO)cc(=O)c2c(OC)c1CC=C(C)C`, in data set [1], the CC50 is above 200 µM. Also, the pEC50 in data set [3] is 5.88.

Turning to `C=CC(CO)[C@@H]1C[C@H]2c3[nH]c4ccccc4c3CCN2C(=O)[C@H]1CO` (stereo partly specified), the negative logarithm of the EC50 (pEC50) in [4] was 7.22.

For `COc1c2c(cc3oc(CO)cc(=O)c13)OC(C)(C)C=C2`, the CC50 in data set [1] was above 200 µM. For the same molecule, in data set [3], the pEC50 is 5.01.

For `C=CC(C)(C)c1cc2cc3c(cc2oc1=O)O[C@H](C(C)(C)O)[C@H]3O`, in [1], the CC50 is above 200 µM. Besides, in data set [3], the pEC50 is 6.77.

As to `C=CC(CO)[C@@H]1C[C@H]2c3[nH]c4ccccc4c3CCN2C(=O)[C@@H]1CO` (stereo partly specified), the CC50 at 48 h in [5] is above 200 µM. For the same molecule, the pEC50 in data set [4] is 6.64.

Regarding `COc1cc2oc(CO)cc(=O)c2c(O)c1CC=C(C)C`, in [1], the 50% cytotoxic concentration (CC50) is above 200 µM. The pEC50 in [3] was 6.02.

For `C=CC(C)(C)c1cc2cc(C[C@@H](OC)C(C)(C)O)c(OC)cc2oc1=O`, the CC50 in data set [1] is above 200 µM. Further, the negative-log EC50 (pEC50) in data set [2] is 6.48.

A word on the pIC50: it is the IC50 on a negative log10 scale, so that one unit is a factor of ten. As to `COc1cc(C)c(Cc2cc3c([nH]c4ccccc43)c3c2OC(C)(C)C=C3)c2c1[nH]c1ccccc12`, the CC50 at 48 h in [5] is above 200 µM. For the same molecule, the pIC50 in data set [6] is 7.73.

`COc1cccc2c1-c1c3c(c(OC)c4cc[n+]([O-])c(c14)C2=O)OCO3`: the CC50 at 48 h in data set [5] was determined as 56.6 µM. In addition, in data set [7], the pEC50 was 5.66.

Consider `O=C(OC[C@H]1O[C@@H](Oc2ccc(O)cc2C(=O)O)[C@H](OC(=O)c2cc(O)c(O)c(O)c2)[C@@H](O)[C@@H]1O)c1cc(O)c(O)c(O)c1`, for which the pEC50 with Influenza A virus [8] is 4.51; in the data set with Influenza A virus [10] it was 4.49. In addition, the pIC50 was 4.68 in the data set on Influenza A virus [9] and 4.56 in data set [11]. The CC50 at 48 h in [12] was determined as 835 µM.

As for `COc1cc(OC)c([N+](=O)[O-])c2c1-c1c3c(c(OC)c4c1[C@@H](C2)NCC4)OCO3`, in [5], the CC50 at 48 h is 28.7 µM. In addition, the negative logarithm of the EC50 (pEC50) in data set [7] was 5.71.

By EC50 is commonly meant the concentration that produces a half-maximal response. For `C/C=C1/C[N+]23CCc4c([nH]c5ccccc45)[C@@H]2C[C@H]1C3C(=O)[O-]` (stereo partly specified), the concentration giving a half-maximal response (EC50) in the data set on Human alphaherpesvirus 1 is 1.09 µg/mL (≈ 3.53 µM).

For the molecule `C[C@H]1CC(=O)[C@@H]2CCCN(C)CCCC(=O)/C(=N\O)C[C@@H]2C1`, the CC50 at 48 h in data set [5] is above 200 µM. Also, the EC50 in data set [7] turned out to be 52.9 µg/mL.

For `CCCCCC(O)/C=C/C=C\CCCCCC[C@@]1(O)C[C@H](C(=O)OC)[C@H](C(C)=O)O1` (stereo partly specified), in [1], the cytotoxic concentration (CC50) is above 200 µM. Besides, in [3], the negative logarithm of the EC50 (pEC50) was 7.10.

Consider `C=C1[C@H]2O[C@@H](OC)[C@H]3[C@@H]1[C@@H]1O[C@@H]1[C@@]3(CO)O2`, for which the CC50 in [1] was above 200 µM. The negative-log IC50 (pIC50) in data set [6] was 5.14.

Values taken from ChEMBL document CHEMBL5537109, “Natural products as potential lead compounds to develop new antiviral drugs over the past decade” (Eur J Med Chem, 2023).
